Experimental data reported in patent publication US9808434B2, “Compound for treating cancer and diabetes” (CITY OF HOPE, priority 2011, dated 2017).

What was measured:
AMPK = AMPK activation in Hela cells, Western blot; type: cell-based; settings: 1 hour, 1, 3 or 5 μM
Description: Activation of AMPK was associated with the phosphorylation of the α-subunit on Thr-172 of as assessed using phospho-specific antibodies (FIGS. 10A-B). AMPK activation also leads to the increased phosphorylation of the target protein acetyl-CoA carboxylase (ACC) (FIG. 10B).
Cells of each cell lines (Hela, HL-60, and 3T3-L1) were treated for 1 hour with a test compound (COH-SR4, COH-SR9, COH-SR16, or COH-SR18) at a concentration of 1 μM, 3 μM, or 5 μM, or AICAR (5-aminoimidazole-4-carboxamideriboside, an AMPK agonist used as positive control) at a concentration of 500 μM, or none of the above (the untreated cells as negative control). Total cell lysates from the untreated cells and the cells treated with a test compound or AICAR were analyzed by Western blot assay using specific antibodies against phospho-AMPK, phospho-ACC, total AMPK and total ACC.

[1] = test system: HMLE breast cancer cell line; assay: HMLE viability, DIMSCAN assay; type: cell-based, human; settings: 3 days, 2-50 μM
Description: The effects of COH-SR compounds on breast cancer cells were investigated. Cells from 4T1 or HMLE breast cancer cell line were seeded in 96-well plates (about 2000 cells/well), allowed to proliferate for one day, treated with a COH-SR compound, doxorubicin, paclitaxel, cisplatin, or nothing (control) at a specific dose (3 wells for each treatment) and assayed for cell viability 3 days after using DIMSCAN assay. COH-SR3, COH-SR4, COH-SR9, doxorubicin, paclitaxel, and cisplatin were used at a dosage of 40 nM, 200 nM, 1 μM, 2 μM, 10 μM, or 50 μM for 4T1 breast cancer cell lines. COH-SR14 was used at a dosage of 40 nM, 200 nM, 1 μM, 2 μM, or 10 μM for 4T1 breast cancer cell lines. COH-SR3, COH-SR4, COH-SR9, doxorubicin, paclitaxel, and cisplatin were used at a dosage of 2 μM, 10 μM, or 50 μM for HMLE breast cancer cell lines. COH-SR14 was used at a dosage of 2 μM, or 10 μM for HMLE breast cancer cell lines.

[2] = test system: NCI-60 human tumor cell lines; assay: NCI-60 DTP Human Tumor Cell Line Drug Screening; type: cell-based; settings: leukemia, NSCLC, colon, CNS, melanoma, ovarian, renal, prostate, breast lines
Source text: Moreover, preliminary data from the NCI-60 DTP Human Tumor Cell Line Drug Screening (http://dtp.nci.nih.gov/branches/btb/ivclsp.html) further confirmed the observations on these COH-SR compounds. […] A value of 100 meant no growth inhibition. A value of 20 meant 80% growth inhibition. A value of 0 meant no net growth over the course of the experiment. A value of −40 meant 40% lethality. A value of −100 meant all cells were dead.

HL-60 cells [3] = assay: HL-60 cell viability, MTT assay; settings: for IC50: Homo sapiens, HL-60, 48 h; for cytotoxicity and cell proliferation: 48 hours, 1-15 μM
Description: Three independent experiments were carried out with 3 duplications each, and data are shown as mean±SE.

3T3-L1 cells [4] = assay: Intracellular triglyceride contents, AdipoRed Assay; type: cell-based, mouse; settings: 7 days in DM + compound
Description: Intracellular triglyceride contents were measured using AdipoRed Assay™ and the results were shown in relative fluorescence units (RFU) in FIG. 5.
(§1) 3T3-L1 preadipocytes cells were treated with differentiating media (DM) with COH-SR4 (1 μM, 3 μM, or 5 μM) or without for 7 days. […] As used in FIG. 9C, U=undifferentiated, D=differentiated with cocktail media.

3T3-L1 cells [5] = assay: Adipocyte differentiation, Oil Red O staining; type: cell-based, mouse; settings: preadipocytes 7 days in differentiating media (DM) + compound
Description: Two-day post-confluent 3T3-L1 preadipocyte cells were allowed to differentiate for 7 days in the presence of nothing, DM only, DM+ a test compound (COH-SR1, COH-SR2, COH-SR3, COH-SR4, COH-SR7, LR23 or LR59), or DM+ a positive control (TSA, C75, or Apicidin).
as §1

U251 = assay: Glioma ATP viability assay, U251; type: cell-based; settings: Table 2
Description: (§2) Cells of each cell line (U251, U87, PBT-017, PBT018, PBT003 and PBT028) were treated with various concentrations (0˜100 μM) of COH-SR4 for 72 hours. Cell viabilities were determined by ATP viability assays. Data were represented as a ratio to vehicle (DMSO) control, and plotted as mean±SEM (n=12) obtained from 2˜3 experiments (FIG. 34A).
as §2, with “(U87, U251,” for “(U251, U87, PBT-017, PBT018,”, “PVT-017)” for “PBT028)”, “2-3” for “2˜3”, “34B).” for “34A).”
Cells of each cell line were treated with various concentrations (0˜100 μM) of COH-SR4 or various concentrations (0˜1000 μM) of TMZ for 72 hours. Cell viabilities were determined by ATP viability assays. Data were represented as a ratio to untreated cells as control, and plotted as mean±SEM (n=12) obtained from 2˜3 experiments (FIGS. 43A-B).

[6] = test system: undifferentiated 3T3-L1 cells; assay: Preadipocyte viability, MTT assay; type: cell-based, mouse; settings: 3 days, 2.5-25 μM
Description: Undifferentiated 3T3-LI cells were treated with COH-SR2, COH-SR3, COH-SR4, COH-SR7, LR23 or LR59 for 3 days at a concentration of 2.5 μM, 5 μM, 10 μM, 15 μM, 20 μM, or 25 μM. The cell viability for each treatment was determined by MTT assay (FIG. 7).

HL-60 cells [7] = assay: Differentiation of HL-60 cells (Giemsa-Wright, NBT, CD11b/CD14); type: cell-based, human; settings: 48 hours, 2-10 μM
Description: HL-60 cells were incubated with a test compound at various concentrations (2˜10 μM), DMSO, or without any test compound for 48 hours, and then examined for morphologic changes by Giemsa-Wright stain. The results were observed microscopically and shown in FIG. 13 at a magnification of ×400. […] Such results were similar to cells treated with DMSO or all-trans retinoic acid (ATRA), wherein DMSO or ATRA terminally differentiated HL-60 cells into myeloid cells (FIG. 13).
HL-60 cells (2.5×10^5) were treated with or without a test compound for 48 hours and then stained with NBT, wherein positively-stained cells appeared as purple black (FIG. 14A). NBT positive cells were counted and the overall percentage was calculated based on 200 total cells counted for each treatment. Three˜four independent experiments were carried out, and data are shown as mean±SE (FIG. 14B). This measurement of “oxidative burst” by the NBT assay is a well-known and extensively tested functional marker of HL-60 cell differentiation.
HL-60 cells (2.5×10^5) were incubated with a test compound (COH-SR4 or COH-SR9) at a concentration of 0.5 μM, 1 μM, 2 μM, or 3 μM, or without any COH-SR compound for 48 hours and then assessed for the surface expression of CD11b (FIG. 14C) and CD14 (FIG. 14D) by flow cytometry, respectively. Three-four independent experiments were carried out, and data are shown as mean±SE (FIGS. 14C and 14D).

[8] = test system: fully differentiated adipocytes; assay: Dedifferentiation of fully differentiated adipocytes, Oil Red O staining; type: cell-based; settings: differentiated 7 days, treated additional 3 days
Description: Fully differentiated adipocyte cells were differentiated for 7 days and were treated for additional 3 days with DM+ a test compound (COH-SR3, COH-SR7, or LR59), DM+ a positive control (Apicidin, TSA or C75), DM, or nothing (control).

Compound: O=C(Nc1cc(Cl)cc(Cl)c1)Nc1ccnc(Cl)n1 [COH-SR18, 1-(2-chloropyrimidin-4-yl)-3-(3,5-dichlorophenyl) urea]
- AMPK activation (AMPK): Dose-dependent AMPK activation

Compound: Cc1c(Cl)cc(NC(=O)Nc2cc(Cl)cc(Cl)c2)cc1Cl [COH-SR14, 1-(3,5-dichloro-4-methylphenyl)-3-(3,5-dichlorophenyl) urea]
- cytotoxic effects compared with doxorubicin, paclitaxel and cisplatin (FIG. 30) [1]: more potent cytotoxic effects
- activity in NCI-60 screening [2]: active against
- IC50 (HL-60 cells [3]): < 5 µM

Compound: COc1cc(CCC(=O)CC(=O)CCc2ccc(OC(C)=O)c(OC)c2)ccc1OC(C)=O [COH-SR1, 1,7-bis(4′-acetoxy-3′-methoxyphenyl)-3,5-heptadione]
- intracellular triglyceride contents (AdipoRed Assay) (3T3-L1 cells [4]): dose-dependently reduced
- differentiation and accumulation of lipid droplets (Oil Red O staining) (3T3-L1 cells [5]): dose-dependently inhibited differentiation and accumulation of lipid droplets

Compound: CCc1c2c(nc3ccc(O)cc13)-c1cc3c(c(=O)n1C2)COC(=O)[C@]3(O)CC [SN-38, 7-ethyl-10-hydroxy-camptothecin]
- IC50 (U251; 72 hours): 0.04 µM

Compound: CC(C)(Oc1ccc(NC(=O)Nc2cc(Cl)cc(Cl)c2)cc1)C(=O)Nc1ccc(C(=O)O)cc1 [COH-SR7, 4-[(3,5-dichlorophenylureido)phenoxyisobutyril]-4-aminobenzoic acid]
- growth of undifferentiated preadipocytes (MTT) [6]: inhibited growth of undifferentiated 3T3-L1 cells
- morphologic changes (Giemsa-Wright stain), myeloid differentiation (HL-60 cells [7]): exhibited cytoplasmic vacuolation, reduced nucleus-to-cytoplasmic ratio, and absence of prominent nucleoli
- dedifferentiation of fully differentiated adipocytes [8]: induced dedifferentiation of fully differentiated adipocytes
- intracellular triglyceride contents (AdipoRed Assay) (3T3-L1 cells [4]): dose-dependently reduced
- differentiation and accumulation of lipid droplets (Oil Red O staining) (3T3-L1 cells [5]): dose-dependently inhibited differentiation and accumulation of lipid droplets

Compound: CC(C)(Oc1ccc(NC(=O)Nc2cc(Cl)cc(Cl)c2)cc1)C(=O)NC1(C(=O)O)CCCCC1 [LR23, 4-(3,5-dichlorophenylureido)phenoxyisobutyryl-1-amidocyclohexane-lcarboxylic acid]
- intracellular triglyceride contents (AdipoRed Assay) (3T3-L1 cells [4]): dose-dependently reduced
- differentiation and accumulation of lipid droplets (Oil Red O staining) (3T3-L1 cells [5]): dose-dependently inhibited differentiation and accumulation of lipid droplets

Compound: 1-(4-chlorobenzyl)-3-dichlorophenyeureido)-4-phenoxyisobutyric acid [LR59]
- dedifferentiation of fully differentiated adipocytes [8]: induced dedifferentiation of fully differentiated adipocytes
- intracellular triglyceride contents (AdipoRed Assay) (3T3-L1 cells [4]): dose-dependently reduced
- differentiation and accumulation of lipid droplets (Oil Red O staining) (3T3-L1 cells [5]): dose-dependently inhibited differentiation and accumulation of lipid droplets

Compound: O=C(Nc1cc(Cl)cc(Cl)c1)Nc1cc(Cl)nc(Cl)c1 [COH-SR16, 1-(2,6-dichloropyridin-4-yl)-3-(3,5-dichlorophenyl) urea]
- AMPK activation (AMPK): Dose-dependent AMPK activation
- activity in NCI-60 screening [2]: active against

Compound: CCc1c2c(nc3ccc(OC(=O)N4CCC(N5CCCCC5)CC4)cc13)-c1cc3c(c(=O)n1C2)COC(=O)[C@]3(O)CC [CPT-11, irinotecan]
- IC50 (U251; Homo sapiens, U-251, 72 h): 41.1 µM

Compound: O=C(Nc1ccc(Cl)c(Cl)c1)Nc1ccc(Cl)c(Cl)c1 [COH-SR3, 1,3-bis(3,4-dichlorophenyl)urea]
- growth of undifferentiated preadipocytes (MTT) [6]: inhibited growth of undifferentiated 3T3-L1 cells
- cytotoxic effects compared with doxorubicin, paclitaxel and cisplatin (FIG. 30) [1]: more potent cytotoxic effects
- activity in NCI-60 screening [2]: active against
- cytotoxicity and cell proliferation (HL-60 cells [3]): exhibited cytotoxicity and prevented cell proliferation of HL-60 leukemia cells
- IC50 (HL-60 cells [3]): < 5 µM
- morphologic changes (Giemsa-Wright stain), myeloid differentiation (HL-60 cells [7]): exhibited cytoplasmic vacuolation, reduced nucleus-to-cytoplasmic ratio, and absence of prominent nucleoli
- dedifferentiation of fully differentiated adipocytes [8]: induced dedifferentiation of fully differentiated adipocytes
- intracellular triglyceride contents (AdipoRed Assay) (3T3-L1 cells [4]): dose-dependently reduced
- differentiation and accumulation of lipid droplets (Oil Red O staining) (3T3-L1 cells [5]): dose-dependently inhibited differentiation and accumulation of lipid droplets

Compound: COc1cc(/C=C/C(=O)/C=C(O)/C=C/c2ccc(OC(C)=O)c(OC)c2)ccc1O [COH-SR2, (1E,4Z,6E)-7-(4″-acetoxy-3″-methoxyphenyl)-5-hydroxy-1-(4′-hydroxy-3′-methoxyphenyl)hepta-1,4,6-trien-3-one]
- growth of undifferentiated preadipocytes (MTT) [6]: inhibited growth of undifferentiated 3T3-L1 cells
- activity in NCI-60 screening [2]: active against
- intracellular triglyceride contents (AdipoRed Assay) (3T3-L1 cells [4]): dose-dependently reduced
- differentiation and accumulation of lipid droplets (Oil Red O staining) (3T3-L1 cells [5]): dose-dependently inhibited differentiation and accumulation of lipid droplets

Compound: O=c1[nH]cc(F)c(=O)[nH]1 [5-FU]
- IC50 (U251; 72 hours): 61 µM

Compound: COc1ccc(-c2ccccc2)cc1NC(=O)Nc1cc(Cl)cc(Cl)c1 [COH-SR6, 1-(3,5-dichlorophenyl)-3-(4-methoxy-[1,1′-bisphenyl]-3-yl) urea]
- activity in NCI-60 screening [2]: active against
- cytotoxicity and cell proliferation (HL-60 cells [3]): exhibited cytotoxicity and prevented cell proliferation of HL-60 leukemia cells
- morphologic changes (Giemsa-Wright stain), myeloid differentiation (HL-60 cells [7]): exhibited cytoplasmic vacuolation, reduced nucleus-to-cytoplasmic ratio, and absence of prominent nucleoli
